The values below are quoted from earlier work in patent US6127388A, “Azetidine, pyrrolidine and piperidine derivatives as 5-HT1D receptor agonists” (Merck Sharp & Dohme Ltd., priority 1996, dated 2000).

Structures are written as SMILES.

The conditions of this data set: therapeutic doses.

In the case of `CNS(=O)(=O)Cc1ccc2[nH]cc(CCN(C)C)c2c1` [sumatriptan], the “adverse cardiovascular events in humans” value is listed as “certain adverse cardiovascular events”.
